Measured values taken from article PMC9354705, “Characterization of TR‐107, a novel chemical activator of the human mitochondrial protease ClpP” (Pharmacology Research & Perspectives, 2022).
“And” between values parts separate entries of the source, which are not always exact repeats. Identical values can stand only once. Like-named read-outs stand apart in the source and are kept apart here.

Assays:
SUM159 cells = test: Cell viability (total cell count, Hoechst stain) in SUM159 cells; format: cell-based; conditions: Homo sapiens, WT cells, 72 h, mean N = 3
Description: Human TNBC cell line SUM159 was a generous gift from Dr. Gary Johnson (the University of North Carolina at Chapel Hill). MDA‐MB‐231 (WT and CLPP‐KO) cells were provided by Dr. Stanley Lipkowitz (National Cancer Institute). MDA‐MB‐231 cells were cultured in RPMI‐1640 media (Gibco, 11875‐093) supplemented with 10% fetal bovine serum (FBS; VWR‐Seradigm, 97068‐085), and 1% antibiotic–antimycotic (anti/anti; ThermoFisher Scientific, 15240062). SUM159 cells were cultured in Dulbecco's modified Eagle's medium: Nutrient Mixture F‐12 (DMEM/F12; Gibco, 11330‐032) supplemented with 5% FBS, 5 μg/ml insulin (Gibco, 12585014), 1 μg/ml hydrocortisone, and 1% anti/anti. Cells were maintained at 5% CO2 and 37°C and periodically tested for mycoplasma.
(§1) Total cell counting assays were performed by seeding MDA‐MB‐231 cells (WT and ClpP‐KO; 4000 cells/well) or SUM159 (WT and ClpP‐KO; 1000 cells/well) in a 96‐well plate (Perkin Elmer, 6005050) and allowed to adhere overnight. The growth medium was then aspirated and replaced with 100 μl of growth medium supplemented with the drug at concentrations indicated in the figure or figure legends. Cells treated with vehicle control (0.1% DMSO, Sigma‐Aldrich D2650) were used as a negative control in all experiments, and cells were incubated with drug‐containing media for 24, 48, or 72 h as indicated in figure legends. Media was then aspirated and replaced with 100 μl Dulbecco's phosphate‐buffered saline (DPBS Gibco, 14190‐144) containing 1 μg/ml Hoechst stain (ThermoFischer Scientific, H3570) and allowed to incubate at 37°C for 30 min. The total cell number was then quantified using the Celigo Imaging Cytometer (Nexcelom).

[1] = target: purified recombinant human ClpP (Homo sapiens, UniProt Q16740); test: In vitro ClpP activity assay (casein‐FITC degradation); format: biochemical; conditions: relative to DMSO, read-out: EC50 (nM) ClpP activation
Description: Measurement of in vitro activity of purified recombinant human ClpP was performed with a slight modification to the method previously described.[46] Briefly, ClpP activity was measured through the degradation of casein‐FITC (Sigma‐Aldrich, C0528) in the presence of indicated compounds. […] Enzyme and compounds were mixed and incubated in assay buffer for 30 min before adding casein‐FITC substrate. […] Linear slope of fluorescence signal was used to measure ClpP activity and normalized to DMSO control, expressed as RFU/h.

recombinant human ClpP = target: T1, recombinant human ClpP (Homo sapiens, UniProt Q16740); test: Surface plasmon resonance binding to ClpP; conditions: steady state, one‐site Langmuir binding model, 25°C; read-out: Kd (SPR)
T1 construct: made in house
Description: For the surface plasmon resonance (SPR) experiments, recombinant human ClpP was purified as previously described.[46] SPR measurements were performed on a Biacore X100 instrument (Cytiva Life Sciences) at 25°C in buffer (25 mM sodium phosphate, pH 7.5, 200 mM KCl, 0.05% Tween‐20, and 0.004% DMSO). ClpP was immobilized onto flowcell two of a CM5 chip (Cytive Life Sciences) using the amine coupling wizard using Biacore X100 Control Software. A pulse of a mixture of NHS and EDC activated the CM5 chip surface. ClpP was diluted to 100 μg/ml in 10 mM sodium acetate, pH 4.5 immediately prior to use and injected over the activated surface for 180 s. The remaining activated sites were blocked with a pulse of ethanolamine. 12 000 RU of ClpP was captured using this procedure. Flowcell 1 was unmodified and served as a reference. For TR‐107 binding to ClpP, a concentration series of TR‐107 in DMSO was diluted into the buffer to achieve 0.004% final DMSO concentration in all samples. Three replicates were injected for each concentration. Data were blank subtracted and analysis was performed in Biacore X100 Evaluation Software (Cytiva Life Sciences). The steady‐state response was calculated 15 s before the end of injection with a window of 15 s. Data were fitted to a one‐site Langmuir binding model.

[2] = Pharmacokinetic analysis in ICR mice; format: in vivo, mouse; conditions: male, mouse, plasma, ICR mice
Description: Samples were placed in tubes containing heparin sodium and stored on ice until centrifuged. Blood samples were centrifuged at 6800g for 6 min at 2–8°C within 1 h following sample collection and stored at −80°C. Proteins from plasma sample aliquots (20 μl) were precipitated by the addition of MeOH (400 μl) containing an internal standard (tolbutamide,100 ng/ml), vortexed for 1 min, and centrifuged at 18 000g for 7 min. The supernatant (200 μl) was transferred to 96 well plates for analysis.
Analysis of samples was conducted as follows. […] The PK parameters including Area Under the Curve (AUC[0–∞]) elimination half‐life (t 1/2), maximal plasma concentration (C max), and oral bioavailability (F%) were analyzed by noncompartmental methods.

[3] = tested on: ClpP‐KO MDA‐MB‐231 and SUM159 cells; test: Cell growth in ClpP‐KO cells; format: cell-based, human; conditions: concentrations as high as 1 μM, up to 72 h
Description: sgRNA against human ClpP (Eurofins Genomics) was annealed and ligated into vector VDB783. This vector was transformed into DH5α cells and the presence of sgRNA was confirmed by colony PCR. Lentivirus was produced in HEK293T cells following transfection with plasmid and jetPRIME (PolyPlus) as previously described.[43] Clonal populations of SUM159 cells infected with dCas9‐KRAB lentivirus were clonally isolated to ensure dCas9‐KRAB expression. Isolated SUM159 cells were infected with ClpP sgRNA lentivirus followed by additional selection passage in growth media supplemented with […] puromycin.
as §1, with “Media was then aspirated and replaced with 100 μl Dulbecco's phosphate‐buffered saline (DPBS Gibco, 14190‐144) containing 1 μg/ml Hoechst stain (ThermoFischer Scientific, H3570) and allowed to incubate at 37°C for 30 min.” left out

[4] = tested on: MDA‐MB‐231 or SUM159 cells; test: Time‐course total cell count in MDA‐MB‐231 or SUM159 cells; format: cell-based, human; conditions: up to 72 h, both cell lines, vs vehicle control
Description: as §1

MDA‐MB‐231 cells = test: Mitochondrial respiration analysis (Seahorse XF); format: cell-based, human; conditions: 24 h
Description: Cellular oxygen consumption and extracellular acidification rates (OCR and ECAR, respectively) were measured using Seahorse XFe96 (Agilent). MDA‐MB‐231 cells were plated (15 000 cells/well) in Seahorse XF96 plates (Agilent, 102416‐100) and allowed to adhere overnight. Cells were then treated with 25 or 50 nM TR‐107 for 24 h. On the day of Seahorse XF analysis, the growth medium was replaced with an XF base medium (Agilent, 103575‐100) supplemented with appropriate concentrations of TR‐107. After measurement of basal OCR/ECAR, 1 μM Oligomycin, 1 μM FCCP, and 1 μM Rotenone/Antimycin A (Agilent, 103015‐100) were added at indicated time points. OCR/ECAR were measured every 6.5 min for 73 min.

T1 sequence (Q16740 57-277): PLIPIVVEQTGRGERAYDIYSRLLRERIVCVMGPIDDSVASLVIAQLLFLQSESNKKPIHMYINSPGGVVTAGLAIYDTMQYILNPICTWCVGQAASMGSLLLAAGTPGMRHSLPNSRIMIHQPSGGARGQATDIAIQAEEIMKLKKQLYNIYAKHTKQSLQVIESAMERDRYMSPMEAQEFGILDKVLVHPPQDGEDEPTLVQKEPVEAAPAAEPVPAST
Sequence of purified recombinant human ClpP (Q16740 57-277): as above

N#Cc1cccc(CN2CCc3ncn(Cc4ccc(Cl)cc4)c(=O)c3C2)c1 [TR‐107]
IC50 (SUM159 cells): 12 nM | EC50 [1]: 140 nM | Kd (recombinant human ClpP): ~180 nM and 178 nM | AUC ([2]; po, 10 mg/kg orally, read-out: exposure (AUC)): 2360 ng·h/mL | AUC(0-inf) ([2]; 10 mg/kg oral): 2360 ng·h/mL | Cmax ([2]; 10 mg/kg oral, read-out: C max): 3.7 µM | Cmax ([2]; 10 mg/kg oral, read-out: C max (mg/ml)): 0.00144 mg/mL | half-life ([2]; 10 mg/kg oral, read-out: T 1/2 (converted)): 54 min | cell growth in ClpP‐KO cells [3]: not inhibited | concentrations inhibiting the increase in cell number [4]: > 10 nM | decline in oxygen consumption rate (OCR) (MDA‐MB‐231 cells; ClpP‐KO MDA‐MB‐231, 25, 50 nM): not observed | extracellular acidification (ECAR) (MDA‐MB‐231 cells; MDA‐MB‐231, 25, 50 nM): dose‐dependent increase | oxygen consumption rate (OCR) (MDA‐MB‐231 cells; WT MDA‐MB‐231, 25, 50 nM): dose‐dependent decline
